Test results from ChEMBL document CHEMBL1255475, “Mutant prevention concentrations of four carbapenems against gram-negative rods” (2010).
In brackets after ≈: the same amount, converted by molar mass.

Tests used:
[1] = system: Acinetobacter baumannii; assay: Ratio of mutant prevention concentration to minimum Inhibitory concentration for Acinetobacter baumannii A929; format: functional
[2] = system: Pseudomonas aeruginosa; assay: Ratio of mutant prevention concentration to minimum Inhibitory concentration for Pseudomonas aeruginosa P335; format: functional
[3] = system: Pseudomonas aeruginosa; assay: Ratio of mutant prevention concentration to minimum Inhibitory concentration for Pseudomonas aeruginosa P338; format: functional
[4] = system: Acinetobacter baumannii; assay: Ratio of mutant prevention concentration to minimum Inhibitory concentration for Acinetobacter baumannii A901; format: functional
[5] = system: Pseudomonas aeruginosa; assay: Ratio of mutant prevention concentration to minimum Inhibitory concentration for Pseudomonas aeruginosa P326; format: functional
[6] = system: Pseudomonas aeruginosa; assay: Ratio of mutant prevention concentration to minimum Inhibitory concentration for Pseudomonas aeruginosa P327; format: functional
[7] = system: Acinetobacter baumannii; assay: Ratio of mutant prevention concentration to minimum Inhibitory concentration for Acinetobacter baumannii A884; format: functional
[8] = system: Pseudomonas aeruginosa; assay: Ratio of mutant prevention concentration to minimum Inhibitory concentration for Pseudomonas aeruginosa P332; format: functional
[9] = system: Pseudomonas aeruginosa; assay: Ratio of mutant prevention concentration to minimum Inhibitory concentration for Pseudomonas aeruginosa P322; format: functional
[10] = system: Pseudomonas aeruginosa; assay: Ratio of mutant prevention concentration to minimum Inhibitory concentration for Pseudomonas aeruginosa P352; format: functional
[11] = system: Pseudomonas aeruginosa; assay: Ratio of mutant prevention concentration to minimum Inhibitory concentration for Pseudomonas aeruginosa P349; format: functional
[12] = system: Acinetobacter baumannii; assay: Ratio of mutant prevention concentration to minimum Inhibitory concentration for Acinetobacter baumannii A896; format: functional
[13] = system: Pseudomonas aeruginosa; assay: Ratio of mutant prevention concentration to minimum Inhibitory concentration for Pseudomonas aeruginosa P320; format: functional
[14] = system: Pseudomonas aeruginosa; assay: Ratio of mutant prevention concentration to minimum Inhibitory concentration for Pseudomonas aeruginosa P334; format: functional
[15] = system: Acinetobacter baumannii; assay: Ratio of mutant prevention concentration to minimum Inhibitory concentration for Acinetobacter baumannii A867; format: functional
[16] = system: Pseudomonas aeruginosa; assay: Ratio of mutant prevention concentration to minimum Inhibitory concentration for Pseudomonas aeruginosa P376; format: functional
[17] = system: Acinetobacter baumannii; assay: Ratio of mutant prevention concentration to minimum Inhibitory concentration for Acinetobacter baumannii A894; format: functional
[18] = system: Pseudomonas aeruginosa; assay: Ratio of mutant prevention concentration to minimum Inhibitory concentration for Pseudomonas aeruginosa P337; format: functional
[19] = system: Acinetobacter baumannii; assay: Antibacterial activity against Acinetobacter baumannii A897 after 24 hrs by agar dilution method; format: functional; conditions: A897, 24 h
[20] = system: Klebsiella pneumoniae; assay: Antibacterial activity against beta-lactamase-positive ESBL-negative Klebsiella pneumoniae E472 after 24 hrs by agar dilution method; format: functional; conditions: E472, 24 h
[21] = system: Acinetobacter baumannii; assay: Antibacterial activity against Acinetobacter baumannii A898 after 24 hrs by agar dilution method; format: functional; conditions: A898, 24 h
[22] = system: Pseudomonas aeruginosa; assay: Antibacterial activity against Pseudomonas aeruginosa P328 after 24 hrs by agar dilution method; format: functional; conditions: P328, 24 h
[23] = system: Acinetobacter baumannii; assay: Antibacterial activity against Acinetobacter baumannii A864 after 24 hrs by agar dilution method; format: functional; conditions: A864, 24 h
[24] = system: Pseudomonas aeruginosa; assay: Antibacterial activity against Pseudomonas aeruginosa P340 after 24 hrs by agar dilution method; conditions: P340, 24 h
[25] = system: Acinetobacter baumannii; assay: Antibacterial activity against Acinetobacter baumannii A867 after 24 hrs by agar dilution method; format: functional; conditions: A867, 24 h
[26] = system: Acinetobacter baumannii; assay: Antibacterial activity against Acinetobacter baumannii A928 after 24 hrs by agar dilution method; format: functional; conditions: A928, 24 h
[27] = system: Klebsiella pneumoniae; assay: Antibacterial activity against beta-lactamase-negative Klebsiella pneumoniae E418 after 24 hrs by agar dilution method; format: functional; conditions: E418, 24 h
[28] = system: Acinetobacter baumannii; assay: Antibacterial activity against Acinetobacter baumannii A910 after 24 hrs by agar dilution method; format: functional; conditions: A910, 24 h
[29] = system: Pseudomonas aeruginosa; assay: Antibacterial activity against Pseudomonas aeruginosa P353 after 24 hrs by agar dilution method; format: functional; conditions: P353, 24 h
[30] = system: Escherichia coli; assay: Antibacterial activity against beta-lactamase-positive ESBL-positive Escherichia coli E450 after 24 hrs by agar dilution method; conditions: E450, 24 h
[31] = system: Acinetobacter baumannii; assay: Antibacterial activity against Acinetobacter baumannii A884 after 24 hrs by agar dilution method; format: functional; conditions: A884, 24 h
[32] = system: Klebsiella pneumoniae; assay: Antibacterial activity against beta-lactamase-negative Klebsiella pneumoniae E358 after 24 hrs by agar dilution method; format: functional; conditions: E358, 24 h
[33] = system: Acinetobacter baumannii; assay: Antibacterial activity against Acinetobacter baumannii A912 after 24 hrs by agar dilution method; format: functional; conditions: A912, 24 h
[34] = system: Acinetobacter baumannii; assay: Antibacterial activity against Acinetobacter baumannii A849 after 24 hrs by agar dilution method; format: functional; conditions: A849, 24 h
[35] = system: Acinetobacter baumannii; assay: Antibacterial activity against Acinetobacter baumannii A908 after 24 hrs by agar dilution method; format: functional; conditions: A908, 24 h
[36] = system: Escherichia coli; assay: Antibacterial activity against beta-lactamase-negative Escherichia coli E424 after 24 hrs by agar dilution method; conditions: E424, 24 h
[37] = system: Escherichia coli; assay: Antibacterial activity against beta-lactamase-negative Escherichia coli E344 after 24 hrs by agar dilution method; conditions: E344, 24 h
[38] = system: Klebsiella pneumoniae; assay: Antibacterial activity against beta-lactamase-positive ESBL-negative Klebsiella pneumoniae E509 after 24 hrs by agar dilution method; format: functional; conditions: E509, 24 h
[39] = system: Pseudomonas aeruginosa; assay: Antibacterial activity against Pseudomonas aeruginosa P365 after 24 hrs by agar dilution method; conditions: P365, 24 h
[40] = system: Pseudomonas aeruginosa; assay: Antibacterial activity against Pseudomonas aeruginosa P370 after 24 hrs by agar dilution method; conditions: P370, 24 h
[41] = system: Escherichia coli; assay: Antibacterial activity against beta-lactamase-negative Escherichia coli E346 after 24 hrs by agar dilution method; conditions: E346, 24 h
[42] = system: Acinetobacter baumannii; assay: Antibacterial activity against Acinetobacter baumannii A885 after 24 hrs by agar dilution method; format: functional; conditions: A885, 24 h
[43] = system: Escherichia coli; assay: Antibacterial activity against beta-lactamase-positive ESBL-negative Escherichia coli E430 after 24 hrs by agar dilution method; conditions: E430, 24 h
[44] = system: Pseudomonas aeruginosa; assay: Antibacterial activity against Pseudomonas aeruginosa P358 after 24 hrs by agar dilution method; format: functional; conditions: P358, 24 h
[45] = system: Acinetobacter baumannii; assay: Antibacterial activity against Acinetobacter baumannii A848 after 24 hrs by agar dilution method; format: functional; conditions: A848, 24 h
[46] = system: Escherichia coli; assay: Antibacterial activity against beta-lactamase-positive ESBL-negative Escherichia coli E412 after 24 hrs by agar dilution method; conditions: E412, 24 h
[47] = system: Escherichia coli; assay: Antibacterial activity against beta-lactamase-positive ESBL-negative Escherichia coli E483 after 24 hrs by agar dilution method; conditions: E483, 24 h
[48] = system: Acinetobacter baumannii; assay: Antibacterial activity against Acinetobacter baumannii A891 after 24 hrs by agar dilution method; format: functional; conditions: A891, 24 h
[49] = system: Escherichia coli; assay: Antibacterial activity against beta-lactamase-negative Escherichia coli E408 after 24 hrs by agar dilution method; conditions: E408, 24 h
[50] = system: Acinetobacter baumannii; assay: Antibacterial activity against Acinetobacter baumannii A851 after 24 hrs by agar dilution method; format: functional; conditions: A851, 24 h
[51] = system: Acinetobacter baumannii; assay: Antibacterial activity against Acinetobacter baumannii A865 after 24 hrs by agar dilution method; format: functional; conditions: A865, 24 h
[52] = system: Escherichia coli; assay: Antibacterial activity against beta-lactamase-positive ESBL-positive Escherichia coli E460 after 24 hrs by agar dilution method; conditions: E460, 24 h
[53] = system: Acinetobacter baumannii; assay: Antibacterial activity against Acinetobacter baumannii A903 after 24 hrs by agar dilution method; format: functional; conditions: A903, 24 h
[54] = system: Escherichia coli; assay: Antibacterial activity against beta-lactamase-negative Escherichia coli E347 after 24 hrs by agar dilution method; conditions: E347, 24 h
[55] = system: Klebsiella pneumoniae; assay: Antibacterial activity against beta-lactamase-negative Klebsiella pneumoniae E362 after 24 hrs by agar dilution method; format: functional; conditions: E362, 24 h

C[C@@H](O)[C@H]1C(=O)N2C(C(=O)O)=C(S[C@@H]3CN[C@H](CNS(N)(=O)=O)C3)[C@H](C)[C@H]12 [DORIPENEM]
Ratio [1]: 2
Ratio [2]: 8
Ratio [3]: 16
Ratio [4]: 2
Ratio [5]: 4
Ratio [6]: 16
Ratio [7]: 2
Ratio [8]: >16
Ratio [9]: 8
Ratio [10]: 2
Ratio [11]: 16
Ratio [12]: 2
Ratio [13]: >8
Ratio [14]: >16
Ratio [15]: 16
Ratio [16]: >16
Ratio [17]: 4
Ratio [18]: 8

C[C@@H](O)[C@H]1C(=O)N2C(C(=O)O)=C(SCCNC=N)C[C@H]12 [IMIPENEM ANHYDROUS]
MIC [19]: 0.5 µg/mL (≈ 1.67 µM)
MIC [20]: 8 µg/mL (≈ 26.7 µM)
MIC [21]: 1 µg/mL (≈ 3.34 µM)
MIC [22]: 8 µg/mL (≈ 26.7 µM)
MIC [23]: 8 µg/mL (≈ 26.7 µM)
MIC [24]: 0.5 µg/mL (≈ 1.67 µM)
MIC [25]: 4 µg/mL (≈ 13.4 µM)
MIC [26]: 0.5 µg/mL (≈ 1.67 µM)
MIC [27]: 2 µg/mL (≈ 6.68 µM)
MIC [28]: 0.5 µg/mL (≈ 1.67 µM)
MIC [29]: 8 µg/mL (≈ 26.7 µM)
MIC [30]: 0.125 µg/mL (≈ 0.418 µM)
MIC [31]: 1 µg/mL (≈ 3.34 µM)
MIC [32]: 0.25 µg/mL (≈ 0.835 µM)
MIC [33]: 2 µg/mL (≈ 6.68 µM)
MIC [34]: 4 µg/mL (≈ 13.4 µM)
MIC [35]: 0.25 µg/mL (≈ 0.835 µM)
MIC [36]: 0.125 µg/mL (≈ 0.418 µM)
MIC [37]: 0.125 µg/mL (≈ 0.418 µM)
MIC [38]: 8 µg/mL (≈ 26.7 µM)
MIC [39]: 2 µg/mL (≈ 6.68 µM)
MIC [40]: 1 µg/mL (≈ 3.34 µM)
MIC [41]: 0.125 µg/mL (≈ 0.418 µM)
MIC [42]: 2 µg/mL (≈ 6.68 µM)
MIC [43]: 0.5 µg/mL (≈ 1.67 µM)
MIC [44]: 32 µg/mL (≈ 107 µM)
MIC [45]: 4 µg/mL (≈ 13.4 µM)
MIC [46]: 0.25 µg/mL (≈ 0.835 µM)
MIC [47]: 1 µg/mL (≈ 3.34 µM)
MIC [48]: 0.5 µg/mL (≈ 1.67 µM)
MIC [49]: 0.125 µg/mL (≈ 0.418 µM)
MIC [50]: 2 µg/mL (≈ 6.68 µM)
MIC [51]: 8 µg/mL (≈ 26.7 µM)
MIC [52]: 0.25 µg/mL (≈ 0.835 µM)
MIC [53]: 0.5 µg/mL (≈ 1.67 µM)
MIC [54]: 0.25 µg/mL (≈ 0.835 µM)
MIC [55]: 0.5 µg/mL (≈ 1.67 µM)
